Converted amounts (≈) assume the structure as drawn. The source made the active and inactive calls. No cut-off for these calls is given here. Where only a bound is given, the exact number is not on record here.

Assay [1] is described as follows: Antiproliferative activity against human HAP1 cells assessed as inhibition of cell viability measured after 72 hrs by colorimetric MTS viability assay. The following applies: HAP1, 72 h. The format is functional, cell-based. For orientation: Tetrazolium dyes change colour on reduction, which living cells bring about.
The subject of a further assay is NCI-H460. Briefly: cells. To be noted: Homo sapiens, NCI-H460, 72 h. The format is functional, cell-based.
In the next assay the test system is CAPAN-1. Kind of assay: cells. The format is functional, cell-based. To be noted: Homo sapiens, CAPAN-1, 72 h.
The next assay concerns Z-138. Briefly: cells. The class given is functional, cell-based. The following applies: Homo sapiens, Z-138, 72 h.
In the next assay the test system is Rec1. Kind of assay: cells. The class given is functional, cell-based. The following applies: Homo sapiens, Rec1, 72 h.
Assay [2] in a line: Antiproliferative activity against human DND41 cells assessed as inhibition of cell viability measured after 72 hrs by real-time IncuCyte proliferation analysis. To be noted: DND41, 72 h. The class given is functional, cell-based.
Another assay deals with Listeria innocua. Kind of assay: Antibacterial activity against Listeria innocua LMG11387 assessed as growth inhibition after 20 hrs by broth microdilution method. The format is functional. A general note: Broth dilution looks for growth in wells or tubes with falling amounts of substance.
For another assay, the system named is Escherichia coli. Briefly: Antibacterial activity against Escherichia coli ATCC47076 assessed as growth inhibition after 20 hrs by broth microdilution method. The format is functional.
The next assay has as its system HCT-116. Kind of assay: Antiproliferative activity against human HCT-116 cells assessed as inhibition of cell viability measured after 72 hrs by colorimetric MTS viability assay. The class given is functional, cell-based. The following applies: HCT-116, 72 h.
Another assay concerns K562. Briefly: cells. The format is functional, cell-based. The following applies: Homo sapiens, K562, 72 h.
Another assay relates to LN-229. Kind of assay: Antiproliferative activity against human LN-229 cells assessed as inhibition of cell viability measured after 72 hrs by colorimetric MTS viability assay. The format is functional, cell-based. To be noted: LN-229, 72 h.
A further assay relates to HL-60. Kind of assay: cells. The format is functional, cell-based. To be noted: Homo sapiens, HL-60, 72 h.
A further assay has as its system MV4-11. Kind of assay: cells. The class given is functional, cell-based. The following applies: Homo sapiens, MV4-11, 72 h.
A further assay deals with Staphylococcus aureus. Briefly: Antibacterial activity against Staphylococcus aureus ATCC65385 assessed as growth inhibition after 20 hrs by broth microdilution method. The class given is functional.
A further assay has as its system Jurkat. Kind of assay: cells. The class given is functional, cell-based. To be noted: Homo sapiens, 72 h.
Assay [3] deals with Salmonella enterica subsp. enterica. Briefly: Antibacterial activity against Salmonella enterica subsp.enterica ATCC13076 assessed as growth inhibition after 20 hrs by broth microdilution method. The class given is functional.

Description for CAPAN-1: Antiproliferative activity against human CAPAN-1 cells assessed as inhibition of cell viability measured after 72 hrs by colorimetric MTS viability assay
Description for HL-60: Antiproliferative activity against human HL-60 cells assessed as inhibition of cell viability measured after 72 hrs by real-time IncuCyte proliferation analysis
Description for Jurkat: Cytotoxicity against human Jurkat cells assessed as inhibition of cell viability measured after 72 hrs by real-time IncuCyte proliferation analysis
Description for K562: Antiproliferative activity against human K562 cells assessed as inhibition of cell viability measured after 72 hrs by real-time IncuCyte proliferation analysis
Description for MV4-11: Cytotoxicity against human MV4-11cells assessed as inhibition of cell viability measured after 72 hrs by real-time IncuCyte proliferation analysis
Description for NCI-H460: Antiproliferative activity against human NCI-H460 cells assessed as inhibition of cell viability measured after 72 hrs by colorimetric MTS viability assay
Description for Rec1: Cytotoxicity against human REC1 cells assessed as inhibition of cell viability measured after 72 hrs by real-time IncuCyte proliferation analysis
Description for Z-138: Antiproliferative activity against human Z138 cells assessed as inhibition of cell viability measured after 72 hrs by real-time IncuCyte proliferation analysis

On to `CC1(C)CC[C@]2(C(=O)O)CC[C@]3(C)C(=CC[C@@H]4[C@@]5(C)Cc6nnn(Cc7ccc8cc[nH]c8c7)c6C(C)(C)[C@@H]5CC[C@]43C)[C@@H]2C1`, for which the IC50 in assay [1] was 9.2 µM; in the assay on NCI-H460, greater than 100 µM; in the assay on CAPAN-1, 9.4 µM; in the assay on Z-138, 67.4 µM; with Rec1, 1.8 µM; in assay [2], greater than 100 µM. The IC50 was 11 µM in the assay with HCT-116; 69.2 µM in the assay with K562; 44.4 µM in the assay on LN-229; 3.3 µM in the assay with HL-60; 21.5 µM in the assay with MV4-11; 2.2 µM in the assay with Jurkat. For the same molecule, the MIC50 in the assay with Listeria innocua was determined as 90 µg/mL (≈ 148 µM); with Escherichia coli, 40.8 µg/mL (≈ 67.1 µM); in the assay on Staphylococcus aureus it was 199 µg/mL (≈ 327 µM); in [3], 29 µg/mL (≈ 47.6 µM).

As to `C[C@H]1[C@H](C)CC[C@]2(C(=O)O)CC[C@]3(C)C(=CC[C@@H]4[C@@]5(C)Cc6nnn(Cc7cccc8[nH]ccc78)c6C(C)(C)[C@@H]5CC[C@]43C)[C@H]12`, the IC50 came to 8.8 µM in [1]; 9.2 µM in the assay on NCI-H460; 3.6 µM with CAPAN-1; 10.1 µM in the assay with Z-138; 2.8 µM in the assay with Rec1; 10.1 µM in assay [2]. For the same molecule, the IC50 with HCT-116 is 15.6 µM; in the assay on K562, greater than 100 µM; with LN-229 it was 63.5 µM; in the assay on HL-60, 2.7 µM; in the assay on MV4-11, 14.1 µM; in the assay on Jurkat it was 4.1 µM. Further, the MIC50 in the assay on Listeria innocua worked out at 51.3 µg/mL (≈ 84.2 µM); with Escherichia coli it was 409 µg/mL (≈ 672 µM); with Staphylococcus aureus, 23.1 µg/mL (≈ 38 µM). Also, the MIC50 entry in [3] is “inactive”.

Regarding `C[C@H]1[C@H](C)CC[C@]2(C(=O)O)CC[C@]3(C)C(=CC[C@@H]4[C@@]5(C)Cc6nnn(Cc7ccc8cc[nH]c8c7)c6C(C)(C)[C@@H]5CC[C@]43C)[C@H]12`, the IC50 came to 2.3 µM in assay [1]; 7.9 µM with NCI-H460; 2.6 µM in the assay with CAPAN-1; 10.3 µM in the assay with Z-138; 4.9 µM in the assay with Rec1; 13.9 µM in assay [2]. Also, the concentration for half-maximal inhibition (IC50) amounted to 11 µM with HCT-116; 53.7 µM with K562; 32.2 µM with LN-229; 3.3 µM with HL-60; 12.6 µM with MV4-11; 5.2 µM in the assay with Jurkat. Besides, the MIC50 with Listeria innocua came out at 74.4 µg/mL (≈ 122 µM); in the assay on Staphylococcus aureus, 60.5 µg/mL (≈ 99.3 µM). Besides, the MIC50 entry (in the assay on Escherichia coli; in assay [3]) was “inactive” in each case.

In the case of `CC1(C)CC[C@]2(C(=O)O)CC[C@]3(C)C(=CC[C@@H]4[C@@]5(C)Cc6nnn(Cc7ccc8[nH]ccc8c7)c6C(C)(C)[C@@H]5CC[C@]43C)[C@@H]2C1`, the IC50 in assay [1] came out at 3.3 µM; in the assay with NCI-H460 it was 8.3 µM; in the assay with CAPAN-1, 4.1 µM; with Z-138 it was 10.3 µM; in the assay with Rec1, 2 µM; in [2] it was 12.1 µM. Also, the IC50 in the assay with HCT-116 was found to be 12 µM; in the assay on K562, 86.1 µM; in the assay with LN-229 it was 37.7 µM; with HL-60, 7 µM; in the assay on MV4-11, 12.8 µM; in the assay on Jurkat, 3.7 µM. Further, the MIC50 stood at 193 µg/mL (≈ 317 µM) with Listeria innocua, 41.6 µg/mL (≈ 68.3 µM) in the assay with Escherichia coli, 95.5 µg/mL (≈ 157 µM) with Staphylococcus aureus and 33 µg/mL (≈ 54.1 µM) in [3].

`C[C@H]1[C@H](C)CC[C@]2(C(=O)O)CC[C@]3(C)C(=CC[C@@H]4[C@@]5(C)Cc6nnn(CCc7c[nH]c8ccccc78)c6C(C)(C)[C@@H]5CC[C@]43C)[C@H]12`: the IC50 in [1] is 6.3 µM; in the assay with NCI-H460, 8.8 µM; in the assay on CAPAN-1 it was 4.6 µM; in the assay on Z-138, 12.2 µM; in the assay on Rec1, 2.5 µM; in assay [2], 9 µM. Besides, the IC50 with HCT-116 is 10.8 µM; in the assay on K562, 65.9 µM; with LN-229, 35.1 µM; in the assay with HL-60 it was 5.5 µM; with MV4-11, 9.9 µM; in the assay with Jurkat, 3.8 µM. The MIC50 in the assay on Listeria innocua turned out to be 118 µg/mL (≈ 189 µM); in the assay with Staphylococcus aureus, 132 µg/mL (≈ 212 µM). Also, the MIC50 entry (in the assay on Escherichia coli; in [3]) was “inactive” in each case.

Take `CC1(C)CC[C@]2(C(=O)O)CC[C@]3(C)C(=CC[C@@H]4[C@@]5(C)Cc6nnn(CCc7c[nH]c8ccccc78)c6C(C)(C)[C@@H]5CC[C@]43C)[C@@H]2C1`: the IC50 in assay [1] is greater than 7.9 µM; in the assay on NCI-H460, 7.6 µM; in the assay on CAPAN-1, 9.6 µM; with Z-138 it was 11.6 µM; with Rec1 it was 2.1 µM; in [2], 9.9 µM. For the same molecule, the IC50 with HCT-116 worked out at 11.1 µM; with K562, 52.1 µM; in the assay on LN-229 it was 55.1 µM; in the assay on HL-60, 1.5 µM; in the assay on MV4-11, 15.8 µM; in the assay on Jurkat, 4.1 µM. For the same molecule, the figures for the MIC50 in the assay with Listeria innocua, in the assay on Escherichia coli and in the assay with Staphylococcus aureus were 255 µg/mL (≈ 409 µM), 387 µg/mL (≈ 622 µM) and 274 µg/mL (≈ 439 µM), respectively. Moreover, the MIC50 result in assay [3] is “inactive”.

On to `C[C@H]1[C@H](C)CC[C@]2(C(=O)O)CC[C@]3(C)C(=CC[C@@H]4[C@@]5(C)Cc6nnn(Cc7ccc8[nH]ccc8c7)c6C(C)(C)[C@@H]5CC[C@]43C)[C@H]12`, for which the IC50 in assay [1] amounted to 4.3 µM; in the assay with NCI-H460, 8.6 µM; with CAPAN-1 it was 4.5 µM; with Z-138 it was 9.4 µM; with Rec1 it was 1.7 µM; in assay [2] it was 11.5 µM. Besides, the IC50 amounted to 11.5 µM in the assay on HCT-116; 49.3 µM with K562; 33.1 µM in the assay with LN-229; 1.5 µM in the assay with HL-60; 12.9 µM with MV4-11; 3.2 µM in the assay with Jurkat. Also, the values for the MIC50 in the assay with Listeria innocua and in the assay with Staphylococcus aureus were 153 µg/mL (≈ 252 µM) and 37 µg/mL (≈ 60.7 µM), respectively. The MIC50 entry (in the assay with Escherichia coli; in assay [3]) was “inactive” in each case.

As a reminder, the IC50 is the concentration that gives 50% inhibition. For orientation: MIC50 means an inhibitory concentration at the 50% level, which refers to growth in some studies and to a panel of isolates in others.

The values above are taken from ChEMBL document CHEMBL4828727, “Antibacterial and antitumoral properties of 1,2,3-triazolo fused triterpenes and their mechanism of inhibiting the proliferation of HL-60 cells” (Eur J Med Chem, 2021).
